Assay results taken from PubChem BioAssay AID1963445 (Molecular Pharmacology Branch, DTP, NCI, 2024).

Test system: MCF7 complex spheroid growth, % test/control
Assay: Anticancer human tumor MCF7 cell line growth inhibition [Asc];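 also: spheroids exposed to compounds for 7 days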;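 as to viability, T/C: 100% = DMSO vehicle control wells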
Conditions: for IC50: curve of first compound; for viability, T/C: stronger effect = lower value
Method in brief: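 Tumor cells were grown as multicellular spheroids with stromal HUVEC and mesenchymal stem cells and treated singly or in combination. Concentrations fell in half-log steps from the clinical Cmax, or from 10 microM where none was known.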

Structure (SMILES): CCN1CCN(Cc2ccc(Nc3ncc(F)c(-c4cc(F)c5nc(C)n(C(C)C)c5c4)n3)nc2)CC1 + CCN1C(C(=O)NC23CCC(C(=O)O)(CC2)CC3)C(c2cccc(Cl)c2F)C2(C(=O)Nc3cc(Cl)ccc32)C12CCCCC2
- IC50 (second compound 0.00949 µM): > 1000 nM
- IC50 (second compound 0.03 µM): > 1000 nM
- IC50 (second compound 0.0949 µM): < 3.16 nM
- IC50 (second compound 0.3 µM): < 3.16 nM
- IC50 (second compound 0.949 µM): < 3.16 nM
- IC50 (second compound 3 µM): < 3.16 nM
- viability, T/C (second compound 0.00949 µM, first compound 0.00316 µM): 99%
- viability, T/C (second compound 0.00949 µM, first compound 0.01 µM): 112%
- viability, T/C (second compound 0.00949 µM, first compound 0.0316 µM): 90.4%
- viability, T/C (second compound 0.00949 µM, first compound 0.1 µM): 92.4%
- viability, T/C (second compound 0.00949 µM, first compound 0.316 µM): 85.6%
- viability, T/C (second compound 0.00949 µM, first compound 1 µM): 71.7%
- viability, T/C (second compound 0.03 µM, first compound 0.00316 µM): 120%
- viability, T/C (second compound 0.03 µM, first compound 0.01 µM): 99.9%
- viability, T/C (second compound 0.03 µM, first compound 0.0316 µM): 88.2%
- viability, T/C (second compound 0.03 µM, first compound 0.1 µM): 63.7%
- viability, T/C (second compound 0.03 µM, first compound 0.316 µM): 59%
- viability, T/C (second compound 0.03 µM, first compound 1 µM): 66.1%
- viability, T/C (second compound 0.0949 µM, first compound 0.00316 µM): 53.9%
- viability, T/C (second compound 0.0949 µM, first compound 0.01 µM): 45.3%
- viability, T/C (second compound 0.0949 µM, first compound 0.0316 µM): 41.8%
- viability, T/C (second compound 0.0949 µM, first compound 0.1 µM): 42.9%
- viability, T/C (second compound 0.0949 µM, first compound 0.316 µM): 40.3%
- viability, T/C (second compound 0.0949 µM, first compound 1 µM): 47.1%
- viability, T/C (second compound 0.3 µM, first compound 0.00316 µM): 31.8%
- viability, T/C (second compound 0.3 µM, first compound 0.01 µM): 30.2%
- viability, T/C (second compound 0.3 µM, first compound 0.0316 µM): 27.7%
- viability, T/C (second compound 0.3 µM, first compound 0.1 µM): 30.9%
- viability, T/C (second compound 0.3 µM, first compound 0.316 µM): 34.5%
- viability, T/C (second compound 0.3 µM, first compound 1 µM): 40.2%
- viability, T/C (second compound 0.949 µM, first compound 0.00316 µM): 20.6%
- viability, T/C (second compound 0.949 µM, first compound 0.01 µM): 17.6%
- viability, T/C (second compound 0.949 µM, first compound 0.0316 µM): 20.5%
- viability, T/C (second compound 0.949 µM, first compound 0.1 µM): 21.5%
- viability, T/C (second compound 0.949 µM, first compound 0.316 µM): 24.9%
- viability, T/C (second compound 0.949 µM, first compound 1 µM): 20%
- viability, T/C (second compound 3 µM, first compound 0.00316 µM): 13.1%
- viability, T/C (second compound 3 µM, first compound 0.01 µM): 14%
- viability, T/C (second compound 3 µM, first compound 0.0316 µM): 14.8%
- viability, T/C (second compound 3 µM, first compound 0.1 µM): 14.6%
- viability, T/C (second compound 3 µM, first compound 0.316 µM): 12.7%
- viability, T/C (second compound 3 µM, first compound 1 µM): 13.4%
